Legend:
[1] = system: INS symptoms in patients with a diagnosis of atypical reflux; experiment: Retrospective medical record review: global level of improvement (GLI) with immunotherapy and/or oral medications; format: in vivo, human; details: GLI 0-100% score
Protocol: Some symptoms of INS have previously been associated with atypical reflux. This example describes a retrospective medical record review for cases in which these symptoms were treated with immunotherapy (allergy shots) and/or oral medications (omeprazole, gabapentin, and/or baclofen).
The population for this example included patients 18 years or older with a diagnosis of atypical reflux and a recorded diagnostic code of 530.81 (see, e.g., http://www.cms.gov/Medicare/Coding/ICD9ProviderDiagnosticCodes/index.html). A randomized sample of 307 cases was derived from a total of 650 patients.
Of the 307 cases, 191 (62.2%) patients tested positive for allergy, 74 (24.1%) were negative, and 42 (13.7%) had unknown allergy status. Allergy refers to IgE-mediated allergies such as ragweed, dust mites, trees, grass, pets, stinging insects, peanuts, etc. Of the 191 cases with allergy, 57 (29.8%) had no immunotherapy, 8 (4.2%) had received immunotherapy in the past, and 126 (66.0%) were currently receiving immunotherapy. Of the 126 currently receiving immunotherapy (abbreviated below as “IT”), 70 (55.6%) had reached maintenance dosing (defined as the effective, therapeutic dose; “on main”) and 56 […] had not yet reached maintenance dosing (“not on main”). The period of immunotherapy is about 3-5 years, and individuals typically reach maintenance dosing by the second half of the first year.
Of the 307 cases, 213 (69.3%) were taking one medication and 86 (28%) were taking no medication. Seven patients were taking two medications, and one patient was taking three medications. Three oral medications used to treat INS were compared: high dose acid suppression using omeprazole (40 mg twice a day), baclofen (40 mg twice a day), and gabapentin (300 mg gradually increasing from one to three times a day).
Global level of improvement (GLI) was represented by a 0-100% score. At each clinical visit, patients were asked to estimate the percentage of their overall improvement. Those figures were entered into the medical record as a GLI score. Trials documented as failed (stopped either due to lack of benefit or dose-limiting side effects) or inadequate (dose never titrated to benefit or side effect) are not included in the results below.

INS symptoms = experiment: Exemplary cases of INS: patient-ranked symptom severity (1-10) and GLI score before and after treatment; format: in vivo, human; details: for Global Improvement (global level of improvement): three months (gabapentin stopped more than a month prior)
Protocol: This example describes three exemplary cases of INS. Patients were given a list of INS symptoms and asked to rank those present on a scale of 1-10, with 10 indicating most severe. Treatment was provided (gabapentin, omeprazole, and/or immunotherapy).
Patient two is a person who presented complaining of cough, runny nose, and sneezing. […] They were started on gabapentin (900 mg) and returned in two weeks for re-evaluation. They reported 60% global level of improvement with gabapentin. They were also started on immunotherapy for its long-lasting benefits. They returned for further evaluation three months later to report they had improved by 85% and had stopped the gabapentin more than a month prior to their last visit. Their symptoms were scored for severity from 1 (mild) to 10 (severe) on initial evaluation, after gabapentin, and after three months of immunotherapy. Their scores are below:
Patient three is a person who presented complaining of cough, post nasal drip, and runny nose. […] The patient was started on immunotherapy and returned for follow-up after four months of immunotherapy. Due to their busy schedule the patient had missed several shot visits and their immunotherapy doses were never increased to the maximum, maintenance dose. They were receiving doses at 1/10th of the maintenance dose. They reported 40% improvement. Omeprazole 40 mg two times daily was added to their regimen and they returned for re-evaluation one week later to report 100% improvement. Their symptom scores are below:
Patient one is a child who presented with their parent complaining of shortness of breath and cough. […] Their parent stated that they commonly wet the bed 2-3 times each night. They were started on omeprazole 20 mg twice a day and returned in a week. […] Their parent estimated 45% global level of improvement. The omeprazole was discontinued due to headaches and they were started on gabapentin. Their parent was advised to increase the dose slowly until it seemed to help or was causing side effects. They returned in two weeks for re-evaluation and had achieved 900 mg twice daily on gabapentin. Their parent estimated 85% global level of improvement.

[2] = No IT (no allergy, or positive allergy but no immunotherapy)
[3] = Patient one, omeprazole 20 mg twice a day, one week, then gabapentin 900 mg twice daily, two weeks
[4] = Patient one, score 1-10, 0 = not present, initial visit 0, omeprazole 20 mg twice a day, one week, then gabapentin 900 mg twice daily, two weeks
[5] = Patient one, score 1-10, 0 = not present, initial visit 3, omeprazole 20 mg twice a day, one week, then gabapentin 900 mg twice daily, two weeks
[6] = Patient one, score 1-10, 0 = not present, initial visit 4, omeprazole 20 mg twice a day, one week, then gabapentin 900 mg twice daily, two weeks
[7] = Patient one, score 1-10, 0 = not present, initial visit 5, omeprazole 20 mg twice a day, one week, then gabapentin 900 mg twice daily, two weeks
[8] = Patient one, score 1-10, 0 = not present, initial visit 6, omeprazole 20 mg twice a day, one week, then gabapentin 900 mg twice daily, two weeks
[9] = Patient one, score 1-10, 0 = not present, initial visit 7, omeprazole 20 mg twice a day, one week, then gabapentin 900 mg twice daily, two weeks
[10] = Patient one, score 1-10, 0 = not present, initial visit 8, omeprazole 20 mg twice a day, one week, then gabapentin 900 mg twice daily, two weeks
[11] = Patient one, score 1-10, 0 = not present, initial visit 10, omeprazole 20 mg twice a day, one week, then gabapentin 900 mg twice daily, two weeks
[12] = Patient two, score 1-10, 0 = not present, initial visit 5, gabapentin 900 mg, two weeks, immunotherapy, three months
[13] = Patient two, score 1-10, 0 = not present, initial visit 6, gabapentin 900 mg, two weeks, immunotherapy, three months
[14] = Patient two, score 1-10, 0 = not present, initial visit 7, gabapentin 900 mg, two weeks, immunotherapy, three months
[15] = Patient two, score 1-10, 0 = not present, initial visit 8, gabapentin 900 mg, two weeks, immunotherapy, three months
[16] = Patient two, score 1-10, 0 = not present, initial visit 10, gabapentin 900 mg, two weeks, immunotherapy, three months
[17] = Patient three, score 1-10, 0 = not present, initial visit 5, immunotherapy four months at 1/10th of maintenance dose, then omeprazole 40 mg two times daily added, one week
[18] = Patient three, score 1-10, 0 = not present, initial visit 6, immunotherapy four months at 1/10th of maintenance dose, then omeprazole 40 mg two times daily added, one week
[19] = Patient three, score 1-10, 0 = not present, initial visit 7, immunotherapy four months at 1/10th of maintenance dose, then omeprazole 40 mg two times daily added, one week
[20] = Patient three, score 1-10, 0 = not present, initial visit 10, immunotherapy four months at 1/10th of maintenance dose, then omeprazole 40 mg two times daily added, one week

NCC(CC(=O)O)c1ccc(Cl)cc1 (stereo not shown) [Baclofen, baclofen]
Mean GLI ([1]; IT not on maintenance dosing): 88.33%
Mean GLI ([1]; IT on maintenance dosing): 70.00%
Mean GLI [1, 2]: 53.94%
Mean GLI ([1]; No allergy): 65.00%

NCC1(CC(=O)O)CCCCC1 [Gabapentin, gabapentin]
Global Improvement (global level of improvement, estimated by mother) (INS symptoms; [3]): 85%
Global Improvement (global level of improvement, estimated by mother) (INS symptoms; Patient one, omeprazole 20 mg twice a day, one week, then gabapentin 900 mg twice daily, two weeks, listed as gabapentin): 85%
Frontal Headache severity score (INS symptoms; [4]): 0
Vulvodynia severity score (INS symptoms; [5]): 0
Fatigue severity score (INS symptoms; [6]): 2
Malaise severity score (INS symptoms; [6]): 2
Nausea severity score (INS symptoms; [6]): 0
Shortness of breath severity score (INS symptoms; [7]): 5
Chest Tightness severity score (INS symptoms; [8]): 0
Watery Eyes severity score (INS symptoms; [8]): 0
Sore Throat severity score (INS symptoms; [9]): 0
Cough severity score (INS symptoms; [10]): 3
Pollakiuria severity score (INS symptoms; [10]): 2
Post Nasal Drip severity score (INS symptoms; [10]): 3
Throat Clearing severity score (INS symptoms; [10]): 5
Bedwetting severity score (INS symptoms; [11]): 0
Runny Nose severity score (INS symptoms; [11]): 0
Global Improvement (global level of improvement) (INS symptoms; Patient two, gabapentin 900 mg, two weeks, immunotherapy): 60%
Global Improvement (global level of improvement) (INS symptoms; Patient two, gabapentin 900 mg, two weeks, immunotherapy, listed as gabapentin): 60%
Hoarse Voice severity score (INS symptoms; Patient two, score 1-10, 0 = not present, initial visit 2, gabapentin 900 mg, two weeks, immunotherapy, three months): 1
Pain in the teeth severity score (INS symptoms; Patient two, score 1-10, 0 = not present, initial visit 3, gabapentin 900 mg, two weeks, immunotherapy, three months): 1
Ear Pressure severity score (INS symptoms; [12]): 2
Malaise severity score (INS symptoms; [12]): 1
Watery Eyes severity score (INS symptoms; [12]): 2
Fatigue severity score (INS symptoms; [13]): 3
Shortness of breath severity score (INS symptoms; [13]): 4
Chest Tightness severity score (INS symptoms; [14]): 2
Glossodynia severity score (INS symptoms; [14]): 3
Runny Nose severity score (INS symptoms; [14]): 1
Sore Throat severity score (INS symptoms; [14]): 1
Throat Clearing severity score (INS symptoms; [14]): 1
Vertigo severity score (INS symptoms; [14]): 1
Post Nasal Drip severity score (INS symptoms; [15]): 1
Puffy Eyelids severity score (INS symptoms; [15]): 3
Cough severity score (INS symptoms; Patient two, score 1-10, 0 = not present, initial visit 9, gabapentin 900 mg, two weeks, immunotherapy, three months): 2
Frontal Headache severity score (INS symptoms; [16]): 1
Itchy Eyes severity score (INS symptoms; [16]): 1
Itchy Pharynx severity score (INS symptoms; [16]): 3
Itchy Skin severity score (INS symptoms; [16]): 4
Repetitive Sneezing severity score (INS symptoms; [16]): 2
Sinus Pressure severity score (INS symptoms; [16]): 3
Mean GLI ([1]; IT not on maintenance dosing): 69.09%
Mean GLI ([1]; IT on maintenance dosing): 70.29%
Mean GLI [1, 2]: 65.58%
Mean GLI ([1]; No allergy): 55.19%

COc1ccc2[nH]c([S+]([O-])Cc3ncc(C)c(OC)c3C)nc2c1 (stereo not shown) [Omeprazole, omeprazole]
Possible side effect (INS symptoms; Patient one, omeprazole 20 mg twice a day, one week, drug discontinued): some headaches
Global Improvement (global level of improvement, estimated by mother) (INS symptoms; [3]): 45%
Global Improvement (global level of improvement, estimated by mother) (INS symptoms; Patient one, omeprazole 20 mg twice a day, one week, then gabapentin 900 mg twice daily, two weeks, listed as omeprazole): 45%
Frontal Headache severity score (INS symptoms; [4]): 8
Vulvodynia severity score (INS symptoms; [5]): 0
Fatigue severity score (INS symptoms; [6]): 2
Malaise severity score (INS symptoms; [6]): 2
Nausea severity score (INS symptoms; [6]): 0
Shortness of breath severity score (INS symptoms; [7]): 5
Chest Tightness severity score (INS symptoms; [8]): 3
Watery Eyes severity score (INS symptoms; [8]): 2
Sore Throat severity score (INS symptoms; [9]): 5
Cough severity score (INS symptoms; [10]): 4
Pollakiuria severity score (INS symptoms; [10]): 2
Post Nasal Drip severity score (INS symptoms; [10]): 3
Throat Clearing severity score (INS symptoms; [10]): 8
Bedwetting severity score (INS symptoms; [11]): 0
Runny Nose severity score (INS symptoms; [11]): 5
Global Improvement (INS symptoms; Patient three, immunotherapy four months at 1/10th of maintenance dose, then omeprazole 40 mg two times daily added, one week): 100%
Ear Pressure severity score (INS symptoms; [17]): 0
Excessive Ear Wax severity score (INS symptoms; [17]): 1
Pain in the teeth severity score (INS symptoms; [17]): 0
Repetitive Sneezing severity score (INS symptoms; [17]): 0
Epistaxis severity score (INS symptoms; [18]): 0
Frontal Headache severity score (INS symptoms; [18]): 0
Pollakiuria severity score (INS symptoms; [18]): 0
Hoarse Voice severity score (INS symptoms; [19]): 1
Itchy Eyes severity score (INS symptoms; [19]): 1
Sore Throat severity score (INS symptoms; [19]): 0
Watery Eyes severity score (INS symptoms; [19]): 0
Chest Tightness severity score (INS symptoms; [20]): 0
Cough severity score (INS symptoms; [20]): 0
Nasal Congestion severity score (INS symptoms; [20]): 0
Post Nasal Drip severity score (INS symptoms; [20]): 0
Runny Nose severity score (INS symptoms; [20]): 0
Sinus Pressure severity score (INS symptoms; [20]): 0
Throat Clearing severity score (INS symptoms; [20]): 0
Vertigo severity score (INS symptoms; [20]): 0
Mean GLI ([1]; IT not on maintenance dosing): 60.00%
Mean GLI ([1]; IT on maintenance dosing): 80.00%
Mean GLI [1, 2]: 56.67%
Mean GLI ([1]; No allergy): 41.00%
